Species: Rattus norvegicus
Experiment: DrugMatrix - Regimen: Daily Repeat
Type: toxicity, organism-based, Sprague-Dawley
Set-up: regimen Daily Repeat, gender Male, age 6-8 weeks
Conditions: in vivo, po, route oral GAVAGE, vehicle 100 % WATER; for ABSOLUTE BASOPHIL / ABSOLUTE EOSINOPHIL / ABSOLUTE LYMPHOCYTE / ABSOLUTE MONOCYTE / ABSOLUTE SEGMENTED NEUTROPHIL / BASOPHIL / EOSINOPHIL / ERYTHROCYTE COUNT / HEMATOCRIT / HEMOGLOBIN / LEUKOCYTE COUNT / LYMPHOCYTE / MEAN CORPUSCULAR HEMOGLOBIN / MEAN CORPUSCULAR HEMOGLOBIN CONCENTRATION / MEAN CORPUSCULAR VOLUME / MONOCYTE / NEUTROPHIL / NUCLEATED RED BLOOD CELLS / PLATELET COUNT: tissue Blood; for ALANINE AMINOTRANSFERASE / ALBUMIN / ALKALINE PHOSPHATASE / ASPARTATE AMINOTRANSFERASE / BLOOD UREA NITROGEN / CARBON DIOXIDE / CHLORIDE / CHOLESTEROL / CREATINE PHOSPHOKINASE / CREATININE / GLUCOSE / LACTATE DEHYDROGENASE / LIPASE / PHOSPHORUS / POTASSIUM / SODIUM / TOTAL BILIRUBIN / TOTAL PROTEIN / URIC ACID: tissue Plasma
[1] = 14 mg/kg, 120 h, dose level Low, time 5 day
[2] = 1000 mg/kg, 72 h, dose level High, time 3 day
[3] = 1000 mg/kg, 120 h, dose level High, time 5 day

## C[C@H]1c2cccc(O)c2C(=O)C2=C(O)[C@]3(O)C(=O)C(C(N)=O)=C(O)[C@@H](N(C)C)[C@@H]3[C@@H](O)[C@@H]21.O [DOXYCYCLINE]
[1]
  ABSOLUTE BASOPHIL: 0 CELLS/uL
  ABSOLUTE EOSINOPHIL: 22.33 CELLS/uL
  ABSOLUTE LYMPHOCYTE: 6462.67 CELLS/uL
  ABSOLUTE MONOCYTE: 105.33 CELLS/uL
  ABSOLUTE SEGMENTED NEUTROPHIL: 909.67 CELLS/uL
  BASOPHIL: 0%
  EOSINOPHIL: 0.33%
  ERYTHROCYTE COUNT: 5.81 x10E6/uL
  HEMATOCRIT: 36.47%
  HEMOGLOBIN: 13.87 G/DL
  LEUKOCYTE COUNT: 7.5 x10E3/uL
  LYMPHOCYTE: 86.67%
  MEAN CORPUSCULAR HEMOGLOBIN: 23.9 pg
  MEAN CORPUSCULAR HEMOGLOBIN CONCENTRATION: 38.1 G/DL
  MEAN CORPUSCULAR VOLUME: 62.77 fL
  MONOCYTE: 1.33%
  NEUTROPHIL: 11.67%
  NUCLEATED RED BLOOD CELLS: 0.33 /100WBC
  PLATELET COUNT: 1055 x10E3/uL
  ALANINE AMINOTRANSFERASE: 56.67 u/L
  ALBUMIN: 4.23 G/DL
  ALKALINE PHOSPHATASE: 411.33 u/L
  ASPARTATE AMINOTRANSFERASE: 92 u/L
  BLOOD UREA NITROGEN: 17.67 mg/dL
  CARBON DIOXIDE: 32 mmol/L
  CHLORIDE: 101.67 MEQ/L
  CHOLESTEROL: 67 mg/dL
  CREATINE PHOSPHOKINASE: 551.33 u/L
  CREATININE: 0.19 mg/dL
  GLUCOSE: 154.67 mg/dL
  LACTATE DEHYDROGENASE: 117 u/L
  LIPASE: 11 u/L
  PHOSPHORUS: 11.33 mg/dL
  POTASSIUM: 6.02 MEQ/L
  SODIUM: 147 MEQ/L
  TOTAL BILIRUBIN: 0.1 mg/dL
  TOTAL PROTEIN: 6.37 G/DL
  URIC ACID: 0.8 mg/dL
[2]
  ABSOLUTE BASOPHIL: 0 CELLS/uL
  ABSOLUTE EOSINOPHIL: 0 CELLS/uL
  ABSOLUTE LYMPHOCYTE: 7696.67 CELLS/uL
  ABSOLUTE MONOCYTE: 0 CELLS/uL
  ABSOLUTE SEGMENTED NEUTROPHIL: 736.67 CELLS/uL
  BASOPHIL: 0%
  EOSINOPHIL: 0%
  ERYTHROCYTE COUNT: 5.23 x10E6/uL
  HEMATOCRIT: 32.1%
  HEMOGLOBIN: 12.57 G/DL
  LEUKOCYTE COUNT: 8.43 x10E3/uL
  LYMPHOCYTE: 92.33%
  MEAN CORPUSCULAR HEMOGLOBIN: 24.07 pg
  MEAN CORPUSCULAR HEMOGLOBIN CONCENTRATION: 39.17 G/DL
  MEAN CORPUSCULAR VOLUME: 61.4 fL
  MONOCYTE: 0%
  NEUTROPHIL: 7.67%
  NUCLEATED RED BLOOD CELLS: 0 /100WBC
  PLATELET COUNT: 1333.67 x10E3/uL
  ALANINE AMINOTRANSFERASE: 59.33 u/L
  ALBUMIN: 4.03 G/DL
  ALKALINE PHOSPHATASE: 294.67 u/L
  ASPARTATE AMINOTRANSFERASE: 81 u/L
  BLOOD UREA NITROGEN: 14.67 mg/dL
  CARBON DIOXIDE: 32.33 mmol/L
  CHLORIDE: 103 MEQ/L
  CHOLESTEROL: 89 mg/dL
  CREATINE PHOSPHOKINASE: 186 u/L
  CREATININE: 0.18 mg/dL
  GLUCOSE: 146 mg/dL
  LACTATE DEHYDROGENASE: 161.33 u/L
  LIPASE: 12.33 u/L
  PHOSPHORUS: 10.9 mg/dL
  POTASSIUM: 5.89 MEQ/L
  SODIUM: 146.35 MEQ/L
  TOTAL BILIRUBIN: 0.0667 mg/dL
  TOTAL PROTEIN: 5.97 G/DL
  URIC ACID: 1.2 mg/dL
[3]
  ABSOLUTE BASOPHIL: 0 CELLS/uL
  ABSOLUTE EOSINOPHIL: 19.67 CELLS/uL
  ABSOLUTE LYMPHOCYTE: 6922.33 CELLS/uL
  ABSOLUTE MONOCYTE: 67.67 CELLS/uL
  ABSOLUTE SEGMENTED NEUTROPHIL: 1023.67 CELLS/uL
  BASOPHIL: 0%
  EOSINOPHIL: 0.33%
  ERYTHROCYTE COUNT: 5.99 x10E6/uL
  HEMATOCRIT: 36.73%
  HEMOGLOBIN: 14.13 G/DL
  LEUKOCYTE COUNT: 8.03 x10E3/uL
  LYMPHOCYTE: 85.67%
  MEAN CORPUSCULAR HEMOGLOBIN: 23.63 pg
  MEAN CORPUSCULAR HEMOGLOBIN CONCENTRATION: 38.53 G/DL
  MEAN CORPUSCULAR VOLUME: 61.37 fL
  MONOCYTE: 1%
  NEUTROPHIL: 13%
  NUCLEATED RED BLOOD CELLS: 0 /100WBC
  PLATELET COUNT: 1104.67 x10E3/uL
  ALANINE AMINOTRANSFERASE: 56 u/L
  ALBUMIN: 3.97 G/DL
  ALKALINE PHOSPHATASE: 312 u/L
  ASPARTATE AMINOTRANSFERASE: 84.33 u/L
  BLOOD UREA NITROGEN: 21 mg/dL
  CARBON DIOXIDE: 32 mmol/L
  CHLORIDE: 99.67 MEQ/L
  CHOLESTEROL: 87.33 mg/dL
  CREATINE PHOSPHOKINASE: 239.67 u/L
  CREATININE: 0.26 mg/dL
  GLUCOSE: 138 mg/dL
  LACTATE DEHYDROGENASE: 100.67 u/L
  LIPASE: 11.33 u/L
  PHOSPHORUS: 10.53 mg/dL
  POTASSIUM: 6.12 MEQ/L
  SODIUM: 146.5 MEQ/L
  TOTAL BILIRUBIN: 0.13 mg/dL
  TOTAL PROTEIN: 5.87 G/DL
  URIC ACID: 0.97 mg/dL

— ChEMBL document CHEMBL3885881, “DrugMatrix”
